Data on 35 molecules can be found in patent US9283222B2 (priority 2006, dated 2016).

The test addresses Recombinant Human Poly(ADP-Ribose) Polymerase (PARP), PARP-1 (Homo sapiens (Human), UniProt P09874). As to conditions: read-out: PARP-1 (Ki); Table 1; text calls the values EC50s.

Recombinant Human Poly(ADP-Ribose) Polymerase (PARP), PARP-1, sequence (P09874 whole entry): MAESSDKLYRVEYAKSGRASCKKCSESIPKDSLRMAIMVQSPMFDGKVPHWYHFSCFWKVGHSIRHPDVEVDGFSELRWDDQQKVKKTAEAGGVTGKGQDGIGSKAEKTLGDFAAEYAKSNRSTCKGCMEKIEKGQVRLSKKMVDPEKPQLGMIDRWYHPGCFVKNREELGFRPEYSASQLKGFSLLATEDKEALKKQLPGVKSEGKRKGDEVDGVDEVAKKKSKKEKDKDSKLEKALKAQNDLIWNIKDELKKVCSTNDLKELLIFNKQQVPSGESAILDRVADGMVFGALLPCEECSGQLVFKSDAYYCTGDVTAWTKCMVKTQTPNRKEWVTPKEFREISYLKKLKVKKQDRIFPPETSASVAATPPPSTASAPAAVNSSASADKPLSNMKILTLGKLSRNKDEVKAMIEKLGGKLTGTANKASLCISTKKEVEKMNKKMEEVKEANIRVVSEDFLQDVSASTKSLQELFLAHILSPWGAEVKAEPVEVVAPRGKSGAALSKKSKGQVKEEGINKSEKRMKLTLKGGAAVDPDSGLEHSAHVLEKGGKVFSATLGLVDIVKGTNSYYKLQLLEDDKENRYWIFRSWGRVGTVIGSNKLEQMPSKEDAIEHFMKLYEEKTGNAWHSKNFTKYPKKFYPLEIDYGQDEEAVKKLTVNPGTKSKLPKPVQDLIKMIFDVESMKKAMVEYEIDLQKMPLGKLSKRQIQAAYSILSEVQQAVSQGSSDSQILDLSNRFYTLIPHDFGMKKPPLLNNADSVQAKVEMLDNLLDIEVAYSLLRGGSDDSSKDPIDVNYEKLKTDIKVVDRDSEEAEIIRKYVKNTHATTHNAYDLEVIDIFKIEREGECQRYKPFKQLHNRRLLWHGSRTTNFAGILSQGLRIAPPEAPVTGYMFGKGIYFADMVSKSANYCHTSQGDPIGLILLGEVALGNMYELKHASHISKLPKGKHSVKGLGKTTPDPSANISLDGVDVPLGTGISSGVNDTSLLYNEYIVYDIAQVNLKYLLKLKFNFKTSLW

On to `Cc1ccc(OCC(=O)Nc2cccc(Cc3n[nH]c(=O)c4c3CCCC4)c2)cc1C` [Example 163, 2-(3,4-dimethylphenoxy)-N-(3-((4-oxo-3,4,5,6,7,8-hexahydrophthalazin-1-yl)methyl)phenyl)acetamide], for which the Ki (in general, a measure of affinity in units of concentration, obtained from inhibition or displacement) is 0.035 µM.

Turning to `NC(=O)C1CCN(C(=O)c2cc(Cc3n[nH]c(=O)c4c3CCCC4)ccc2F)CC1` [Example 498, 1-{2-fluoro-5-[(4-oxo-3,4,5,6,7,8-hexahydrophthalazin-1-yl)methyl]benzoyl}piperidine-4-carboxamide], the Ki turned out to be 0.0027 µM.

Take `NC(=O)C1CCCN(C(=O)c2cc(Cc3n[nH]c(=O)c4c3NCCC4)ccc2F)C1` (centres unmarked) [Example 519, 1-{2-fluoro-5-[(5-oxo-1,2,3,4,5,6-hexahydropyrido[2,3-d]pyridazin-8-yl)methyl]benzoyl}piperidine-3-carboxamide]: the Ki was determined as 0.005 µM.

For `Nc1cc(Cc2n[nH]c(=O)c3cccnc23)ccc1F` [Example 463, 8-(3-amino-4-fluorobenzyl)pyrido(2,3-d)pyridazin-5(6H)-one], the Ki was 1.88 µM.

As to `COC(=O)c1ccc(Cc2n[nH]c(=O)c3c2CCCC3)cn1` [Example 86, methyl 5-((4-oxo-3,4,5,6,7,8-hexahydrophthalazin-1-yl)methyl)pyridine-2-carboxylate], the Ki amounted to 0.39 µM.

In the case of `O=C(NC1CCN(C(=O)c2cn[nH]c2)CC1)c1cc(Cc2n[nH]c(=O)c3c2NCCC3)ccc1F` [Example 734, 2-fluoro-5-[(5-oxo-1,2,3,4,5,6-hexahydropyrido[2,3-d]pyridazin-8-yl)methyl]-N-[1-(1H-pyrazol-4-ylcarbonyl)piperidin-4-yl]benzamide], the Ki stood at 0.009 µM.

For `O=C(c1cccnc1)N1CCN(C(=O)c2cc(Cc3n[nH]c(=O)c4c3NCCC4)ccc2F)CC1` [Example 661, 8-(4-fluoro-3-{[4-(pyridin-3-ylcarbonyl)piperazin-1-yl]carbonyl}benzyl)-2,3,4,6-tetrahydropyrido[2,3-d]pyridazin-5(1H)-one], the Ki is 0.0015 µM.

`O=C(NC1CCN(C(=O)c2cc(Cc3n[nH]c(=O)c4c3NCCC4)ccc2F)CC1)c1ccc2cn[nH]c2c1` [Example 749, N-(1-{2-fluoro-5-[(5-oxo-1,2,3,4,5,6-hexahydropyrido[2,3-d]pyridazin-8-yl)methyl]benzoyl}piperidin-4-yl)-1H-indazole-6-carboxamide]: the Ki came out at 0.0014 µM.

On to `O=C(c1cccc(-c2cc(CCc3n[nH]c(=O)c4c3CCCC4)ccc2F)c1)N1CCOCC1` [Example 264, 4-(2-(6-fluoro-3′-(morpholin-4-ylcarbonyl)-1,1′-biphenyl-3-yl)ethyl)-5,6,7,8-tetrahydrophthalazin-1(2H)-one], for which the Ki came out at 0.662 µM.

Turning to `Cc1nc2cc(C(=O)N3CCCN(C(=O)c4cc(Cc5n[nH]c(=O)c6c5NCCC6)ccc4F)CC3)ccc2[nH]1` [Example 689, 8-[4-fluoro-3-({4-[(2-methyl-1H-benzimidazol-5-yl)carbonyl]-1,4-diazepan-1-yl}carbonyl)benzyl]-2,3,4,6-tetrahydropyrido[2,3-d]pyridazin-5(1H)-one], the Ki was 0.0027 µM.

With `O=C(Nc1ccc(F)cc1F)Nc1cc(Cc2n[nH]c(=O)c3c2CCCC3)ccc1F` [Example 541, N-(2,4-difluorophenyl)-N′-{2-fluoro-5-[(4-oxo-3,4,5,6,7,8-hexahydrophthalazin-1-yl)methyl]phenyl}urea], the Ki came out at 0.071 µM.

On to `CN(C(=O)c1cc(Cc2n[nH]c(=O)c3c2NCCC3)ccc1F)C1CCN(C(=O)[C@@H]2CSCN2)CC1` [Example 716, 2-fluoro-N-methyl-5-[(5-oxo-1,2,3,4,5,6-hexahydropyrido[2,3-d]pyridazin-8-yl)methyl]-N-{1-[(4R)-1,3-thiazolidin-4-ylcarbonyl]piperidin-4-yl}benzamide], for which the Ki was 0.005 µM.

Consider `O=C(Cc1ccccn1)Nc1cccc(Cc2n[nH]c(=O)c3c2CCCC3)c1` [Example 215, N-(3-((4-oxo-3,4,5,6,7,8-hexahydrophthalazin-1-yl)methyl)phenyl)-2-pyridin-2-ylacetamide], for which the Ki turned out to be 0.085 µM.

For the molecule `O=C(c1ccccc1-c1cc(CCc2n[nH]c(=O)c3c2CCCC3)ccc1F)N1CCCC1` [Example 268, 4-(2-(6-fluoro-2′-(pyrrolidin-1-ylcarbonyl)-1,1′-biphenyl-3-yl)ethyl)-5,6,7,8-tetrahydrophthalazin-1(2H)-one], the Ki worked out at 0.638 µM.

Turning to `Cc1ccc(Cc2n[nH]c(=O)c3c2CCCC3)cc1N` [Example 281, 4-(3-amino-4-methylbenzyl)-5,6,7,8-tetrahydrophthalazin-1(2H)-one], the Ki was found to be 0.309 µM.

With `O=c1[nH]nc(Cc2ccc(-c3ccc(Cc4n[nH]c(=O)c5c4CCCC5)cn3)nc2)c2c1CCCC2` [Example 109, 4-((5′-((4-oxo-3,4,5,6,7,8-hexahydrophthalazin-1-yl)methyl)-2,2′-bipyridin-5-yl)methyl)-5,6,7,8-tetrahydrophthalazin-1(2H)-one], the Ki was 0.609 µM.

For `O=C(COc1ccccc1)N1CCNC(Cc2n[nH]c(=O)c3c2CCCC3)C1` (centres unmarked) [Example 292, 4-((4-(phenoxyacetyl)piperazin-2-yl)methyl)-5,6,7,8-tetrahydrophthalazin-1(2H)-one], the Ki worked out at 0.116 µM.

With `O=C(OCc1ccccc1)N1CCN(C(=O)c2cc(Cc3n[nH]c(=O)c4c3NCCC4)ccc2F)CC1` [Example 613, benzyl 4-{2-fluoro-5-[(5-oxo-1,2,3,4,5,6-hexahydropyrido[2,3-d]pyridazin-8-yl)methyl]benzoyl}piperazine-1-carboxylate], the Ki worked out at 0.0018 µM.

As for `CCS(=O)(=O)N1CCN(C(=O)c2cc(Cc3n[nH]c(=O)c4c3CCCC4)ccc2F)CC1` [Example 586, 4-(3-{[4-(ethylsulfonyl)piperazin-1-yl]carbonyl}-4-fluorobenzyl)-5,6,7,8-tetrahydrophthalazin-1(2H)-one], the Ki came out at 0.0011 µM.

With `O=C(NCC(=O)N1CCCCC1)c1cc(Cc2n[nH]c(=O)c3c2NCCC3)ccc1F` [Example 487, 2-fluoro-5-((5-oxo-1,2,3,4,5,6-hexahydropyrido(3,2-d)pyridazin-8-yl)methyl)-N-(2-oxo-2-(piperidin-1-yl)ethyl)benzamide], the Ki was 0.01 µM.

For the molecule `Cc1ccc(C(=O)Nc2cccc(Cc3n[nH]c(=O)c4c3CCCC4)c2)c(O)c1` [Example 225, 2-hydroxy-4-methyl-N-(3-((4-oxo-3,4,5,6,7,8-hexahydrophthalazin-1-yl)methyl)phenyl)benzamide], the Ki is 0.041 µM.

As for `O=C(NCCc1ccc(Cl)cc1)c1cccc(Cc2n[nH]c(=O)c3c2CCCC3)c1` [Example 390, N-(2-(4-chlorophenyl)ethyl)-3-((4-oxo-3,4,5,6,7,8-hexahydrophthalazin-1-yl)methyl)benzamide], the Ki was found to be 0.031 µM.

Turning to `C[S+]([O-])c1nccc(Cc2n[nH]c(=O)c3c2CCCC3)n1` (centres unmarked) [Example 70, 4-((2-(methylsulfinyl)pyrimidin-4-yl)methyl)-5,6,7,8-tetrahydrophthalazin-1(2H)-one], the Ki amounted to 0.101 µM.

Consider `CCOCCC(=O)Nc1cccc(Cc2n[nH]c(=O)c3c2CCCC3)c1` [Example 138, 3-ethoxy-N-(3-((4-oxo-3,4,5,6,7,8-hexahydrophthalazin-1-yl)methyl)phenyl)propanamide], for which the Ki is 0.022 µM.

On to `O=C(Nc1cccc(Cc2n[nH]c(=O)c3c2CCCC3)c1)c1cc(Br)ccc1Cl` [Example 243, 5-bromo-2-chloro-N-(3-((4-oxo-3,4,5,6,7,8-hexahydrophthalazin-1-yl)methyl)phenyl)benzamide], for which the Ki turned out to be 0.092 µM.

Regarding `O=C(c1cc[nH]n1)N1CCN(C(=O)c2cc(Cc3n[nH]c(=O)c4c3NCCC4)ccc2F)CC1` [Example 704, 8-(4-fluoro-3-{[4-(1H-pyrazol-3-ylcarbonyl)piperazin-1-yl]carbonyl}benzyl)-2,3,4,6-tetrahydropyrido[2,3-d]pyridazin-5(1H)-one], the Ki was 0.0006 µM.

Turning to `O=CN1CCN(C(=O)c2cccc(Cc3n[nH]c(=O)c4c3CCCC4)c2)CC1` [Example 437, 4-(3-((4-oxo-3,4,5,6,7,8-hexahydrophthalazin-1-yl)methyl)benzoyl)piperazine-1-carbaldehyde], the Ki came to 0.004 µM.

`O=C(Nc1cccc(Cc2n[nH]c(=O)c3c2CCCC3)c1)c1ccc2ccccc2c1O` [Example 236, 1-hydroxy-N-(3-((4-oxo-3,4,5,6,7,8-hexahydrophthalazin-1-yl)methyl)phenyl)-2-naphthamide]: the Ki was determined as 0.004 µM.

On to `Cc1c(C(=O)Nc2cccc(Cc3n[nH]c(=O)c4c3CCCC4)c2)cnn1-c1ccccc1` [Example 219], for which the Ki came out at 0.009 µM.

As for `COCCC(=O)Nc1cc(Cc2n[nH]c(=O)c3c2CCCC3)ccc1F` [Example 456, N-(2-fluoro-5-((4-oxo-3,4,5,6,7,8-hexahydrophthalazin-1-yl)methyl)phenyl)-3-methoxypropanamide], the Ki amounted to 0.005 µM.

In the case of `O=C(Cc1cccc(Oc2ccccc2)c1)Nc1cccc(Cc2n[nH]c(=O)c3c2CCCC3)c1` [Example 176, N-(3-((4-oxo-3,4,5,6,7,8-hexahydrophthalazin-1-yl)methyl)phenyl)-2-(3-phenoxyphenyl)acetamide], the Ki was 0.043 µM.

Regarding `O=C(NC1CCN(C(=O)c2cc(Cc3n[nH]c(=O)c4c3NCCC4)ccc2F)CC1)c1ccncc1` [Example 748, N-(1-{2-fluoro-5-[(5-oxo-1,2,3,4,5,6-hexahydropyrido[2,3-d]pyridazin-8-yl)methyl]benzoyl}piperidin-4-yl)isonicotinamide], the Ki came to 0.001 µM.

For the molecule `O=C(c1cc(Cc2n[nH]c(=O)c3c2NCCC3)ccc1F)N1CCN(CCN2CCCCC2)CC1` [Example 570, 8-(4-fluoro-3-{[4-(2-piperidin-1-ylethyl)piperazin-1-yl]carbonyl}benzyl)-2,3,4,6-tetrahydropyrido[2,3-d]pyridazin-5(1H)-one], the Ki worked out at 0.008 µM.

Take `O=C(Nc1cccc(Cc2n[nH]c(=O)c3c2CCCC3)c1)c1c[nH]c2ccccc12` [Example 218, N-(3-((4-oxo-3,4,5,6,7,8-hexahydrophthalazin-1-yl)methyl)phenyl)-1H-indole-3-carboxamide]: the Ki worked out at 0.086 µM.

Turning to `COc1cc(NC(=O)c2cccc(Cc3n[nH]c(=O)c4c3CCCC4)c2)ccc1C` [Example 352, N-(3-methoxy-4-methylphenyl)-3-((4-oxo-3,4,5,6,7,8-hexahydrophthalazin-1-yl)methyl)benzamide], the Ki came to 0.154 µM.
